Reference: patent US8148373B2, “Compounds” (AstraZeneca AB, priority 2008, dated 2012)

What was measured:
[1] = target: T1, Adrenergic β2 (H292 cells) (Homo sapiens, UniProt P07550); experiment: Adrenergic β2 Mediated cAMP Production, single concentration 1 μM; assay type: cell-based; conditions: NCI-H292, 1 μM compound, percentage of the maximum response generated by 1E-07M formoterol, read-out: β2 (% effect at 1 μM)
T1 construct: endogenous in cells; host or cells: H292 cells
Outline: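 H292 cells were plated overnight, pre-treated with 300 μM rolipram for 10 min, then exposed to compound at 1 μM final (1% DMSO) for 60 min at room temperature. cAMP in the lysates was measured by AlphaScreen against a standard curve and expressed as % of the maximal response to 1E-07M formoterol.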

[2] = target: T2, human muscarinic acetylcholine M3 receptor (M3-ACh) (Homo sapiens, UniProt P20309); experiment: Muscarinic 3 Receptor Binding Assay, % inhibition specific binding at 1 μM; conditions: 1 μM compound, % inhibition specific [3H]-NMS binding
T2 construct: expressed in transfected cells; host or cells: CHO-K1 (Chinese Hamster Ovary) cell membranes
T2 sequence (P20309 whole entry): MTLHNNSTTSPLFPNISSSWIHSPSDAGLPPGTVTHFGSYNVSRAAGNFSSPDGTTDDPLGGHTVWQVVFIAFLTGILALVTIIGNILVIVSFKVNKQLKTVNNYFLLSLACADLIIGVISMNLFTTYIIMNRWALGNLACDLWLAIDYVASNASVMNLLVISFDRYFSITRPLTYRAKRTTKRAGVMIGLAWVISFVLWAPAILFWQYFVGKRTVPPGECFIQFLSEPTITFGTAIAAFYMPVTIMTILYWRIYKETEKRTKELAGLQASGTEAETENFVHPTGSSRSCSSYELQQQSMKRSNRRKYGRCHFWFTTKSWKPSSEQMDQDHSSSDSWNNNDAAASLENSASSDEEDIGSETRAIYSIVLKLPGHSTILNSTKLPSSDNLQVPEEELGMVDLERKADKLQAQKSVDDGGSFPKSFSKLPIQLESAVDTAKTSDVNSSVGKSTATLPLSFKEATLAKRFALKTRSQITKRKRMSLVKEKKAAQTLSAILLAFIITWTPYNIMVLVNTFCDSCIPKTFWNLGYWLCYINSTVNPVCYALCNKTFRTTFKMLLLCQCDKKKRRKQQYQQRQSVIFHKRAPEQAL
Outline: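 Competition binding of 0.1 nM [3H]NMS to membranes from CHO-K1 cells expressing human M3, SPA format, with compound at 1 μM in 20 mM HEPES pH 7.4, 5 mM MgCl2, 1% DMSO. Incubated 16 h at room temperature; non-specific binding defined by 1 μM atropine; value is % inhibition of specific binding.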

T1 sequence (P07550 whole entry): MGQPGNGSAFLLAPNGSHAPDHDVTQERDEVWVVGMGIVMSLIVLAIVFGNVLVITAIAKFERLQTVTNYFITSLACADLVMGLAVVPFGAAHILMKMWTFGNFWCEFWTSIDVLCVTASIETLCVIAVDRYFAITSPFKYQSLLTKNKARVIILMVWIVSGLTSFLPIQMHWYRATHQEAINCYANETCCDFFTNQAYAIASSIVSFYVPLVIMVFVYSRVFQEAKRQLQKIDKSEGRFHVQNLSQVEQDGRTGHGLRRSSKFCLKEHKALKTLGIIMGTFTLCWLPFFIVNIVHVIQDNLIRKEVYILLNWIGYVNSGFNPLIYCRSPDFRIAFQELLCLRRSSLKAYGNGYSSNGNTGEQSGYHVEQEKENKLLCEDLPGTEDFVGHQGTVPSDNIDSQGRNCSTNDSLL

Cc1cc(CC(=O)N2CCOC3(CCN(CCCCCCCCCNC[C@H](O)c4ccc(O)c5[nH]c(=O)sc45)CC3)C2)on1 [Example 208, (R)-4-hydroxy-7-(1-hydroxy-2-(9-(4-(2-(3-methylisoxazol-5-yl)acetyl)-1-oxa-4,9-diazaspiro[5.5]undecan-9-yl)nonylamino)ethyl)benzo[d]thiazol-2(3H)-one]
activation at 1 µM [1]: 98% | inhibition at 1 µM [2]: 88%

Cc1nc(C)c(CC(=O)N2CCOC3(CCN(CCCCCCCCCNC[C@H](O)c4ccc(O)c5[nH]c(=O)sc45)CC3)C2)s1 [Example 211, (R)-7-(2-(9-(4-(2-(2,4-dimethylthiazol-5-yl)acetyl)-1-oxa-4,9-diazaspiro[5.5]undecan-9-yl)nonylamino)-1-hydroxyethyl)-4-hydroxybenzo[d]thiazol-2(3H)-one]
activation at 1 µM [1]: 91% | inhibition at 1 µM [2]: 68%

O=C(c1ccsc1Cl)N1CCOC2(CCN(CCCCCCCCCNC[C@H](O)c3ccc(O)c4[nH]c(=O)sc34)CC2)C1 [Example 212, (R)-7-(2-(9-(4-(2-chlorothiophene-3-carbonyl)-1-oxa-4,9-diazaspiro[5.5]undecan-9-yl)nonylamino)-1-hydroxyethyl)-4-hydroxybenzo[d]thiazol-2(3H)-one]
activation at 1 µM [1]: 93% | inhibition at 1 µM [2]: 88%

CC(C)c1cc(C(=O)N2CCOC3(CCN(CCCCCCCCCNC[C@H](O)c4ccc(O)c5[nH]c(=O)sc45)CC3)C2)no1 [Example 214, (R)-4-hydroxy-7-(1-hydroxy-2-(9-(4-(5-isopropylisoxazole-3-carbonyl)-1-oxa-4,9-diazaspiro[5.5]undecan-9-yl)nonylamino)ethyl)benzo[d]thiazol-2(3H)-one]
activation at 1 µM [1]: 82% | inhibition at 1 µM [2]: 91%

Cc1nc2cc(C(=O)N3CCOC4(CCN(CCCCCCCCCNC[C@H](O)c5ccc(O)c6[nH]c(=O)sc56)CC4)C3)ccc2s1 [Example 215, (R)-4-hydroxy-7-(1-hydroxy-2-(9-(4-(2-methylbenzo[d]thiazole-5-carbonyl)-1-oxa-4,9-diazaspiro[5.5]undecan-9-yl)nonylamino)ethyl)benzo[d]thiazol-2(3H)-one]
activation at 1 µM [1]: 89% | inhibition at 1 µM [2]: 94%

CC(C)(C)c1nc(C(=O)N2CCOC3(CCN(CCCCCCCCCNC[C@H](O)c4ccc(O)c5[nH]c(=O)sc45)CC3)C2)cs1 [Example 216, (R)-7-(2-(9-(4-(2-tert-butylthiazole-4-carbonyl)-1-oxa-4,9-diazaspiro[5.5]undecan-9-yl)nonylamino)-1-hydroxyethyl)-4-hydroxybenzo[d]thiazol-2(3H)-one]
activation at 1 µM [1]: 88% | inhibition at 1 µM [2]: 90%

Cc1cc(C(=O)N2CCOC3(CCN(CCCCCCCCCNC[C@H](O)c4ccc(O)c5[nH]c(=O)sc45)CC3)C2)sc1C [Example 222, (R)-7-(2-(9-(4-(4,5-dimethylthiophene-2-carbonyl)-1-oxa-4,9-diazaspiro[5.5]undecan-9-yl)nonylamino)-1-hydroxyethyl)-4-hydroxybenzo[d]thiazol-2(3H)-one]
activation at 1 µM [1]: 87% | inhibition at 1 µM [2]: 91%

O=C(c1ccccc1)N1CCOC2(CCN(CCOc3ccc(CNC[C@H](O)c4ccc(O)c5[nH]c(=O)sc45)cc3)CC2)C1 [Example 223, (R)-7-(2-(4-(2-(4-benzoyl-1-oxa-4,9-diazaspiro[5.5]undecan-9-yl)ethoxy)benzylamino)-1-hydroxyethyl)-4-hydroxybenzo[d]thiazol-2(3H)-one]
activation at 1 µM [1]: 87% | inhibition at 1 µM [2]: 56%

O=C(CCCc1cccs1)N1CCOC2(CCN(CCOc3ccc(CNC[C@H](O)c4ccc(O)c5[nH]c(=O)sc45)cc3)CC2)C1 [Example 224, (R)-4-hydroxy-7-(1-hydroxy-2-(4-(2-(4-(4-(thiophen-2-yl)butanoyl)-1-oxa-4,9-diazaspiro[5.5]undecan-9-yl)ethoxy)benzylamino)ethyl) benzo[d]thiazol-2(3H)-one]
activation at 1 µM [1]: 89% | inhibition at 1 µM [2]: 70%

Cn1cccc1C(=O)N1CCOC2(CCN(CCOc3ccc(CNC[C@H](O)c4ccc(O)c5[nH]c(=O)sc45)cc3)CC2)C1 [Example 225, (R)-4-hydroxy-7-(1-hydroxy-2-(4-(2-(4-(1-methyl-1H-pyrrole-2-carbonyl)-1-oxa-4,9-diazaspiro[5.5]undecan-9-yl)ethoxy)benzylamino)ethyl) benzo[d]thiazol-2(3H)-one]
activation at 1 µM [1]: 74% | inhibition at 1 µM [2]: 60%

O=C(Cc1cccs1)N1CCOC2(CCN(CCOc3ccc(CNC[C@H](O)c4ccc(O)c5[nH]c(=O)sc45)cc3)CC2)C1 [Example 226, (R)-4-hydroxy-7-(1-hydroxy-2-(4-(2-(4-(2-(thiophen-2-yl)acetyl)-1-oxa-4,9-diazaspiro[5.5]undecan-9-yl)ethoxy)benzylamino)ethyl) benzo[d]thiazol-2(3H)-one]
activation at 1 µM [1]: 76% | inhibition at 1 µM [2]: 53%

O=C(Cc1ccccc1)N1CCOC2(CCN(CCOc3ccc(CNC[C@H](O)c4ccc(O)c5[nH]c(=O)sc45)cc3)CC2)C1 [Example 227, (R)-4-hydroxy-7-(1-hydroxy-2-(4-(2-(4-(2-phenylacetyl)-1-oxa-4,9-diazaspiro[5.5]undecan-9-yl)ethoxy)benzylamino)ethyl) benzo[d]thiazol-2(3H)-one]
activation at 1 µM [1]: 80% | inhibition at 1 µM [2]: 48%

O=C(CCc1ccccc1)N1CCOC2(CCN(CCOc3ccc(CNC[C@H](O)c4ccc(O)c5[nH]c(=O)sc45)cc3)CC2)C1 [Example 228, (R)-4-hydroxy-7-(1-hydroxy-2-(4-(2-(4-(3-phenylpropanoyl)-1-oxa-4,9-diazaspiro[5.5]undecan-9-yl)ethoxy)benzylamino)ethyl) benzo[d]thiazol-2(3H)-one]
activation at 1 µM [1]: 67% | inhibition at 1 µM [2]: 22%

O=C(CCCc1ccccc1)N1CCOC2(CCN(CCOc3ccc(CNC[C@H](O)c4ccc(O)c5[nH]c(=O)sc45)cc3)CC2)C1 [Example 229, (R)-4-hydroxy-7-(1-hydroxy-2-(4-(2-(4-(4-phenylbutanoyl)-1-oxa-4,9-diazaspiro[5.5]undecan-9-yl)ethoxy)benzylamino)ethyl) benzo[d]thiazol-2(3H)-one]
activation at 1 µM [1]: 83% | inhibition at 1 µM [2]: 67%

CC(C)(C(=O)N1CCOC2(CCN(CCOc3ccc(CNC[C@H](O)c4ccc(O)c5[nH]c(=O)sc45)cc3)CC2)C1)c1ccccc1 [Example 230, (R)-4-hydroxy-7-(1-hydroxy-2-(4-(2-(4-(2-methyl-2-phenylpropanoyl)-1-oxa-4,9-diazaspiro[5.5]undecan-9-yl)ethoxy)benzylamino)ethyl) benzo[d]thiazol-2(3H)-one]
activation at 1 µM [1]: 70% | inhibition at 1 µM [2]: 31%

O=C(c1ccc(Cl)s1)N1CCOC2(CCN(CCOc3ccc(CNC[C@H](O)c4ccc(O)c5[nH]c(=O)sc45)cc3)CC2)C1 [Example 231, (R)-7-(2-(4-(2-(4-(5-chlorothiophene-2-carbonyl)-1-oxa-4,9-diazaspiro[5.5]undecan-9-yl)ethoxy)benzylamino)-1-hydroxyethyl)-4-hydroxybenzo[d] thiazol-2(3H)-one]
activation at 1 µM [1]: 53% | inhibition at 1 µM [2]: 91%

Cc1ccsc1C(=O)N1CCOC2(CCN(CCOc3ccc(CNC[C@H](O)c4ccc(O)c5[nH]c(=O)sc45)cc3)CC2)C1 [Example 232, (R)-4-hydroxy-7-(1-hydroxy-2-(4-(2-(4-(3-methylthiophene-2-carbonyl)-1-oxa-4,9-diazaspiro[5.5]undecan-9-yl)ethoxy)benzylamino)ethyl) benzo[d]thiazol-2(3H)-one]
activation at 1 µM [1]: 83% | inhibition at 1 µM [2]: 56%

O=C(Cc1ccsc1)N1CCOC2(CCN(CCOc3ccc(CNC[C@H](O)c4ccc(O)c5[nH]c(=O)sc45)cc3)CC2)C1 [Example 233, (R)-4-hydroxy-7-(1-hydroxy-2-(4-(2-(4-(2-(thiophen-3-yl)acetyl)-1-oxa-4,9-diazaspiro[5.5]undecan-9-yl)ethoxy)benzylamino)ethyl) benzo[d]thiazol-2(3H)-one]
activation at 1 µM [1]: 82% | inhibition at 1 µM [2]: 51%

Cc1ccoc1C(=O)N1CCOC2(CCN(CCOc3ccc(CNC[C@H](O)c4ccc(O)c5[nH]c(=O)sc45)cc3)CC2)C1 [Example 234, (R)-4-hydroxy-7-(1-hydroxy-2-(4-(2-(4-(3-methylfuran-2-carbonyl)-1-oxa-4,9-diazaspiro[5.5]undecan-9-yl)ethoxy)benzylamino)ethyl) benzo[d]thiazol-2(3H)-one]
activation at 1 µM [1]: 78% | inhibition at 1 µM [2]: 80%

O=C(c1cc2ccccc2s1)N1CCOC2(CCN(CCOc3ccc(CNC[C@H](O)c4ccc(O)c5[nH]c(=O)sc45)cc3)CC2)C1 [Example 235, (R)-7-(2-(4-(2-(4-(benzo[b]thiophene-2-carbonyl)-1-oxa-4,9-diazaspiro[5.5]undecan-9-yl)ethoxy)benzylamino)-1-hydroxyethyl)-4-hydroxy-benzo[d]thiazol-2(3H)-one]
activation at 1 µM [1]: 97% | inhibition at 1 µM [2]: 29%

Cc1cc(C(=O)N2CCOC3(CCN(CCOc4ccc(CNC[C@H](O)c5ccc(O)c6[nH]c(=O)sc56)cc4)CC3)C2)oc1C [Example 236, (R)-7-(2-(4-(2-(4-(4,5-dimethylfuran-2-carbonyl)-1-oxa-4,9-diazaspiro[5.5]undecan-9-yl)ethoxy)benzylamino)-1-hydroxyethyl)-4-hydroxy-benzo[d]thiazol-2(3H)-one]
activation at 1 µM [1]: 73% | inhibition at 1 µM [2]: 30%
